Assay [1] concerns the target T1, human liver glycogen phosphorylase a (hlGPa) (Homo sapiens, UniProt P06737).
T1 construct: gene PYGL
T1 sequence (P06737 2-847): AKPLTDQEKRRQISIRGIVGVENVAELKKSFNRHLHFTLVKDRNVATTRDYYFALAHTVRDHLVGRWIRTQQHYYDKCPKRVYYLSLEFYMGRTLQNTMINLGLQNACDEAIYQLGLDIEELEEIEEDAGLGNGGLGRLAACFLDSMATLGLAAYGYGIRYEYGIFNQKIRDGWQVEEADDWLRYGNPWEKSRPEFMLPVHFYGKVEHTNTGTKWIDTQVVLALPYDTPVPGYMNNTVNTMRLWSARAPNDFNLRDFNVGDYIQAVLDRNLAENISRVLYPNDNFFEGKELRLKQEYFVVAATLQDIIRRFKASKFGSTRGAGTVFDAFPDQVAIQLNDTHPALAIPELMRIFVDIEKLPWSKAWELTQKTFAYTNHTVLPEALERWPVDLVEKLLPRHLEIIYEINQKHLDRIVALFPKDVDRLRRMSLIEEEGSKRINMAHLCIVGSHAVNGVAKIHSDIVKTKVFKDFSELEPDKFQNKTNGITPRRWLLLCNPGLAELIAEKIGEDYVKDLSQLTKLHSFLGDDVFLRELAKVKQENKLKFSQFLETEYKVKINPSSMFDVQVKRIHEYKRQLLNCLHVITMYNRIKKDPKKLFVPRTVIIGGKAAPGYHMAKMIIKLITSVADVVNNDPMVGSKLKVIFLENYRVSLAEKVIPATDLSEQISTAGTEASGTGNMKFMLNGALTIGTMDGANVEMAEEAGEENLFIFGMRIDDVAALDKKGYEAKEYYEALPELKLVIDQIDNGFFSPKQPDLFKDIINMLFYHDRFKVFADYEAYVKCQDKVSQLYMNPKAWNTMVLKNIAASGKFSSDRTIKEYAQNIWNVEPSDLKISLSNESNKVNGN
Briefly: enzyme kinetics on purified hlGPa, Lineweaver–Burk. It counts as biochemical.

The target of assay [2] is T2, Rabbit skeletal muscle glycogen phosphorylase b (rmGPb) (Oryctolagus cuniculus, UniProt P00489).
T2 construct: gene PYGM
T2 sequence (P00489 2-843): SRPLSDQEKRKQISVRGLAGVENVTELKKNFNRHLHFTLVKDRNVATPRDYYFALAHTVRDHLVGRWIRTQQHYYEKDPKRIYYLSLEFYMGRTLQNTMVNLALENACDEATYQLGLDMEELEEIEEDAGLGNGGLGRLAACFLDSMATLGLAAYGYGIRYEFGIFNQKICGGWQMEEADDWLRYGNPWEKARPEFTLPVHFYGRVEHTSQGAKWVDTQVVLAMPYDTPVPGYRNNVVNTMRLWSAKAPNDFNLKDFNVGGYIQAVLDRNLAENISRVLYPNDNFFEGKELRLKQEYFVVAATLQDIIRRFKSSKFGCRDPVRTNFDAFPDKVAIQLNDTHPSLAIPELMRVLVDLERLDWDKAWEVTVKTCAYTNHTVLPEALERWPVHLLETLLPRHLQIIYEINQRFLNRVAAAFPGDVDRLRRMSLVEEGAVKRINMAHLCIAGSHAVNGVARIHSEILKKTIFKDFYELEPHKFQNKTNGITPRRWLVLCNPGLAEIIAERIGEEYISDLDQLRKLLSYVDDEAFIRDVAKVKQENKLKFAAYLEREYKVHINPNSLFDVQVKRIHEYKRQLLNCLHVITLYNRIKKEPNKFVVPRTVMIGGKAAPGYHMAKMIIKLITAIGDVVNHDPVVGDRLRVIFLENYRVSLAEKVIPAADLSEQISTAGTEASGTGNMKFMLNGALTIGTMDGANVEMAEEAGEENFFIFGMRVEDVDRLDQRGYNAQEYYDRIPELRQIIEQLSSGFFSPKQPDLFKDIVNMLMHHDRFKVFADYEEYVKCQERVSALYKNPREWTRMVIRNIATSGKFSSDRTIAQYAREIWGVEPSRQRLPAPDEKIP
Briefly: X-ray crystal structure ([…] Å) plus enzyme kinetics (noncompetitive Ki). It counts as biochemical.

The target of assay [3] is T2, Rabbit skeletal muscle glycogen phosphorylase b (rmGPb). The assay is described as above. Format: biochemical. The source holds these as a separate data set.
Assay [4] addresses T1, human liver glycogen phosphorylase a (hlGPa). The assay is described as follows: enzyme inhibition assay on purified hlGPa. It counts as biochemical.
Assay [5] deals with T2, Rabbit skeletal muscle glycogen phosphorylase b (rmGPb).
For assay [6] the target is unchanged. The assay is described as follows: X-ray crystal structure of ternary rmGPb-EGCG-glucose complex ([…] Å); multiple inhibition kinetics. Format: binding.

The text below walks through data of publication PMC11528470, “Evidence for the Quercetin Binding Site of Glycogen Phosphorylase as a Target for Liver-Isoform-Selective Inhibitors against Glioblastoma: Investigation of Flavanols Epigallocatechin Gallate and Epigallocatechin” (Journal of Agricultural and Food Chemistry, 2024).

Where two headings read alike, the source gives them in different places.

In the case of `O=C(O[C@@H]1Cc2c(O)cc(O)cc2O[C@@H]1c1cc(O)c(O)c(O)c1)c1cc(O)c(O)c(O)c1` [EGCG], the Ki in assay [1] is 17.6 ± 0.7 µM; in assay [2] it was 49.8 ± 1.6 µM.
For `Oc1cc(O)c2c(c1)O[C@H](c1cc(O)c(O)c(O)c1)[C@H](O)C2` [EGC], the Ki in assay [3] worked out at 286 ± 14.1 µM. Further, the concentration for half-maximal inhibition (IC50) in assay [4] was 194 ± 3.5 µM.
As for `Cn1c(=O)c2c(ncn2C)n(C)c1=O` [caffeine], the “X-ray crystal structure of ternary rmGPb-EGCG-caffeine complex (2.5 Å); multiple” value in assay [5] was “EGCG can bind at the QBS simultaneously with glucose at the catalytic site or caffeine at the inhibitor site”.
Take `OC[C@H]1OC(O)[C@H](O)[C@@H](O)[C@@H]1O` (stereo partly drawn) [glucose]: the “X-ray crystal structure of ternary rmGPb-EGCG-glucose complex (2.0 Å); multiple” value in assay [6] was “EGCG can bind at the QBS simultaneously with glucose at the catalytic site or caffeine at the inhibitor site”.
